In patent publication US20250302080A1, “SWEETNESS AND/OR FLAVOR ENHANCER” (AJINOMOTO CO., INC., priority 2022, published 2025):

Tests used:
[1] = Sensory evaluation of sweetness intensity in RebM solution (Experimental Examples 20-21); details: added alone, 3.0 points or more
Protocol: A negative control RebM solution (0.063 wt % RebM solution) was prepared by dissolving RebM in filtered water.
A sensory evaluation of sweetness intensity was performed for each sample by a panel of four experts according to the following evaluation criteria.
Sweetness intensity was evaluated by 0.0 to 10.0 points based on the following reference samples (negative control (hereinafter referred to as NC) (0.0 point); reference 1 (hereinafter referred to as R1) (3.0 points), reference 2 (hereinafter referred to as R2) (5.0 points); reference 3 (hereinafter referred to as R3) (10.0 points)). The average score (rounded to two decimal places) of each expert panelist was calculated. An average score of 3.0 points or more was considered to be functional. • NC (0.0 point): 0.063 wt % RebM solution (solvent: filtered water) • R1 (3.0 points): 0.063 wt % RebM solution (solvent: filtered water)+dodecanoic acid (1 ppb) • R2 (5.0 points): 0.066 wt % RebM solution (solvent: filtered water) • R3 (10.0 points): 0.069 wt % RebM solution (solvent: filtered water)
A sensory evaluation of sweetness intensity was performed for each sample by a panel of four experts according to the same evaluation criteria as in Experimental Example 20.

[2] = Sensory evaluation of yogurt flavor intensity in yogurt drink (Experimental Example 14); details: added alone, 3.0 points or more
Protocol: (§1) Yogurt drink (product name: 7 Premium Yogurt Drink, SEVEN-ELEVEN JAPAN CO., LTD.) was diluted 1.2 times with filtered water to prepare negative control yogurt drink.
(§2) When the carbohydrate content of 7 Premium Yogurt Drink is calculated as the total sucrose content, the negative control yogurt drink contains 10.75 g of sucrose per 100 g.
(§3) A sensory evaluation of sweetness intensity and yogurt flavor intensity was performed for each sample by a panel of three experts according to the following evaluation criteria.
(§4) Sweetness intensity and yogurt flavor intensity were each evaluated by 0.0 to 10.0 point based on the following reference samples (negative control (hereinafter referred to as NC) (0.0 point); reference 1 (hereinafter referred to as R1) (5.0 points); reference 2 (hereinafter referred to as R2) (10.0 points)). The average score (rounded to two decimal places) of each expert panelist was calculated. An average score of 3.0 points or more was considered to be functional. • NC (0.0 point): yogurt drink (product name: 7 Premium Yogurt Drink, SEVEN-ELEVEN JAPAN CO., LTD.) diluted 1.2 times with filtered water. • R1 (5.0 points): with 0.54 g of sucrose added per 99.46 g of NC. • R2 (10.0 points): with 1.08 g of sucrose added per 98.92 g of NC.

[3] = Sensory evaluation of sweetness intensity in yogurt drink (Experimental Example 14); details: added alone, 3.0 points or more
Protocol: as §1, §2, §3, §4

[4] = Sensory evaluation of cafe au lait flavor intensity in sucrose-containing cafe au lait (Experimental Example 16); details: added alone, 3.0 points or more
Protocol: Negative control cafe au lait was prepared by the same method as in Experimental Example 6.
A sensory evaluation of the presence or absence of cafe au lait flavor intensity enhancement was performed for each sample by a panel of four experts according to the following evaluation criteria.
Cafe au lait flavor intensity was evaluated by 0.0 to 10.0 point based on the following reference samples (negative control (hereinafter referred to as NC) (0.0 point); reference 1 (hereinafter referred to as R1) (5.0 points); reference 2 (hereinafter referred to as R2) (10.0 points)). The average score (rounded to two decimal places) of each expert panelist was calculated. An average score of 3.0 points or more was considered to be functional. • NC (0.0 point): cafe au lait prepared by mixing starting materials at the blending rate in Table 6 in Experimental Example 6 (i.e., negative control cafe au lait). • R1 (5.0 points): drink with 0.15 g of sucrose added per 99.85 g of NC. • R2 (10.0 points): drink with 0.3 g of sucrose added per 99.70 g of NC.

[5] = Sensory evaluation of sweetness intensity in black tea au lait (Experimental Example 15); details: added alone; for concentration at which a sweetness-enhancing effect was confirmed: 3.0 points or more
Protocol: Instant black tea au lait powder (product name: Blendy (registered trademark) Stick Black Tea Au Lait (Ajinomoto AGF, Inc.)) was prepared according to the instructions, and then diluted 1.2 times with filtered water to prepare negative control black tea au lait.
When the carbohydrate content of Blendy (registered trademark) Stick Black Tea Au Lait is calculated as the total sucrose content, the negative control black tea au lait contains 5.2 g of sucrose per 100 g.
A sensory evaluation of sweetness intensity and black tea au lait flavor intensity was performed for each sample by a panel of three experts according to the following evaluation criteria.
Sweetness intensity and black tea au lait flavor intensity were each evaluated by 0.0 to 10.0 point based on the following reference samples (negative control (hereinafter referred to as NC) (0.0 point); reference 1 (hereinafter referred to as R1) (5.0 points); reference 2 (hereinafter referred to as R2) (10.0 points)). The average score (rounded to two decimal places) of each expert panelist was calculated. An average score of 3.0 points or more was considered to be functional. • NC (0.0 point): black tea au lait (product name: Black Tea Au Lait, Ajinomoto AGF, Inc.) prepared according to the instructions, and then diluted 1.2 times with filtered water (i.e., negative control black tea au lait). • R1 (5.0 points): with 0.26 g of sugar added per 99.74 g of NC. • R2 (10.0 points): with 0.52 g of sugar added per 99.48 g of NC.

[6] = Sensory evaluation of sweetness intensity in RebA solution (Experimental Example 12); details: added alone, 3.0 points or more
Protocol: A negative control RebA solution (0.073 wt % […] solution) was prepared by dissolving RebA in filtered water.
A sensory evaluation of sweetness intensity was performed for each sample by a panel of three experts according to the following evaluation criteria.
Sweetness intensity was evaluated by 0.0 to 10.0 points based on the following reference samples (negative control (hereinafter referred to as NC) (0.0 point); reference 1 (hereinafter referred to as R1) (5.0 points); reference 2 (hereinafter referred to as R2) (10.0 points)). The average score (rounded to two decimal places) of each expert panelist was calculated. An average score of 3.0 points or more was considered to be functional. • NC (0.0 point): 0.073 wt % RebA solution (solvent: filtered water) • R1 (5.0 points): 0.077 wt % RebA solution (solvent: filtered water) • R2 (10.0 points): 0.080 wt % RebA solution (solvent: filtered water)

| Structure (SMILES) | concentration at which a sweetness-enhancing effect was confirmed [1] | concentration at which a yogurt flavor-enhancing effect was confirmed [2] | concentration at which a sweetness-enhancing effect was confirmed [3] | concentration at which a cafe au lait flavor-enhancing effect was confirmed [4] | concentration at which a sweetness-enhancing effect was confirmed [5] | concentration at which a sweetness-enhancing effect was confirmed [6] | sweetness-enhancing effect (in words) ([5]; 0.0001-1000 ppb) |
| --- | --- | --- | --- | --- | --- | --- | --- |
| CC(C)CCC(=O)O [4-methylpentanoic acid] | 100 ppb | ≥ 0.1 ppb | ≥ 1 ppb | ≥ 1 ppb | ≥ 100 ppb | 100 ppb | – |
| CC1=C(O)C(=O)CC1 [cyclotene] | 10 ppb | ≥ 0.01 ppb | ≥ 0.01 ppb | ≥ 0.1 ppb | ≥ 1 ppb | 10 ppb | – |
| CCCCCCCCCC(=O)O [decanoic acid] | 10 ppb | ≥ 0.01 ppb | ≥ 0.1 ppb | ≥ 0.01 ppb | – | 10 ppb | concentration-dependent sweetness-enhancing effect |
